In US11957687B2 (REGENERON PHARMACEUTICALS, INC., priority 2019, dated 2024):

Molecular target: HSD17B13 (Homo sapiens (Human), UniProt Q7Z5P4)
Experiment: HSD17B13 enzymatic inhibition assay (150 nM or 50 nM HSD17B13)
Assay type: biochemical
Details: 50 nM HSD17B13; read-out: Inhibition of 50 nM of HSD17B13 IC50

HSD17B13, sequence (Q7Z5P4 other isoform, or with tags, fused parts or gaps): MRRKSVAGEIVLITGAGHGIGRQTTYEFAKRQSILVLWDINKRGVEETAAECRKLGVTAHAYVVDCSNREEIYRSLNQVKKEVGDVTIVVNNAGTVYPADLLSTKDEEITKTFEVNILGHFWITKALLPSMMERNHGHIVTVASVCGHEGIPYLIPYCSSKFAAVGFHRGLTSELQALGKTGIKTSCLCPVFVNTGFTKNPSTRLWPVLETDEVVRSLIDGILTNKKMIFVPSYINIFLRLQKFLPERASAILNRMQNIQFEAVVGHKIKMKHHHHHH

SMILES	IC50
Cc1cc(C(F)(F)F)[nH]c(=O)c1C(=O)NC(c1ccccc1)c1ccc(CC(F)(F)F)cc1 (stereo not shown) [Compound 125, 4-methyl-2-oxo-N-(phenyl(4-(2,2,2-trifluoroethyl)phenyl)methyl)-6-(trifluoromethyl)-1,2-dihydropyridine-3-carboxamide]	960 nM
Cc1ccc(C(NC(=O)c2c(C)cc(C(F)(F)F)[nH]c2=O)c2ccccc2)cc1 (stereo not shown) [Compound 126, 4-methyl-2-oxo-N-(phenyl(p-tolyl)methyl)-6-(trifluoromethyl)-1,2-dihydropyridine-3-carboxamide]	1750 nM
O=C(NC1CCSc2ccccc21)c1ccc(C(F)(F)F)[nH]c1=O (stereo not shown) [Compound 127, 2-oxo-N-(thiochroman-4-yl)-6-(trifluoromethyl)-1,2-dihydropyridine-3-carboxamide]	3750 nM
O=C(NC1CCOc2ccccc21)c1ccc(C(F)(F)F)[nH]c1=O (stereo not shown) [Compound 128, N-(chroman-4-yl)-2-oxo-6-(trifluoromethyl)-1,2-dihydropyridine-3-carboxamide]	5690 nM
CC1CC(NC(=O)c2ccc(C(F)(F)F)[nH]c2=O)c2ccccc2O1 (stereo not shown) [Compound 129, N-(2-methylchroman-4-yl)-2-oxo-6-(trifluoromethyl)-1,2-dihydropyridine-3-carboxamide]	4330 nM
O=C(NC1CCNc2ccccc21)c1ccc(C(F)(F)F)[nH]c1=O (stereo not shown) [Compound 130, 2-oxo-N-(1,2,3,4-tetrahydroquinolin-4-yl)-6-(trifluoromethyl)-1,2-dihydropyridine-3-carboxamide]	> 10000 nM
O=C(NC1CCc2cc(Cl)ccc21)c1ccc(C(F)(F)F)[nH]c1=O (stereo not shown) [Compound 131, N-(5-chloro-2,3-dihydro-1H-inden-1-yl)-2-oxo-6-(trifluoromethyl)-1,2-dihydropyridine-3-carboxamide]	1820 nM
O=C(NC1CCCc2ccccc21)c1ccc(C(F)(F)F)[nH]c1=O (stereo not shown) [Compound 132, 2-oxo-N-(1,2,3,4-tetrahydronaphthalen-1-yl)-6-(trifluoromethyl)-1,2-dihydropyridine-3-carboxamide]	1450 nM
Cc1ccc2c(c1)CCC2NC(=O)c1ccc(C(F)(F)F)[nH]c1=O (stereo not shown) [Compound 133, N-(5-methyl-2,3-dihydro-1H-inden-1-yl)-2-oxo-6-(trifluoromethyl)-1,2-dihydropyridine-3-carboxamide]	1450 nM
O=C(NC1CCc2cc(O)ccc21)c1ccc(C(F)(F)F)[nH]c1=O (stereo not shown) [Compound 135, N-(5-hydroxy-2,3-dihydro-1H-inden-1-yl)-2-oxo-6-(trifluoromethyl)-1,2-dihydropyridine-3-carboxamide]	1910 nM
O=C(NC1CCc2c(O)cccc21)c1ccc(C(F)(F)F)[nH]c1=O (stereo not shown) [Compound 136, N-(4-hydroxy-2,3-dihydro-1H-inden-1-yl)-2-oxo-6-(trifluoromethyl)-1,2-dihydropyridine-3-carboxamide]	1130 nM
O=C(NC1c2ccccc2COc2ccccc21)c1ccc(C(F)(F)F)[nH]c1=O (stereo not shown) [Compound 137, N-(6,11-dihydrodibenzo[b,e]oxepin-11-yl)-2-oxo-6-(trifluoromethyl)-1,2-dihydropyridine-3-carboxamide]	4190 nM
C=Cc1ccc2c(c1)Oc1cccc(C=C)c1C2NC(=O)c1ccc(C(F)(F)F)[nH]c1=O (stereo not shown) [Compound 139, N-(1,6-divinyl-9H-xanthen-9-yl)-2-oxo-6-(trifluoromethyl)-1,2-dihydropyridine-3-carboxamide]	510 nM
CCc1ccc2c(c1)Oc1cccc(CC)c1C2NC(=O)c1ccc(C(F)(F)F)[nH]c1=O (stereo not shown) [Compound 142, N-(1,6-diethyl-9H-xanthen-9-yl)-2-oxo-6-(trifluoromethyl)-1,2-dihydropyridine-3-carboxamide]	540 nM
CCc1ccc2c(c1)Oc1cc(CC)ccc1C2NC(=O)c1ccc(C(F)(F)F)[nH]c1=O [Compound 143, N-(3,6-diethyl-9H-xanthen-9-yl)-2-oxo-6-(trifluoromethyl)-1,2-dihydropyridine-3-carboxamide]	90 nM
O=C(NC1c2ccc(CC(F)(F)F)cc2Oc2cc(CC(F)(F)F)ccc21)c1ccc(C(F)(F)F)[nH]c1=O [Compound 144, N-(3,6-bis(2,2,2-trifluoroethyl)-9H-xanthen-9-yl)-2-oxo-6-(trifluoromethyl)-1,2-dihydropyridine-3-carboxamide]	310 nM
O=C(NC1c2ccc(C3CC3)cc2Oc2cc(C3CC3)ccc21)c1ccc(C(F)(F)F)[nH]c1=O [Compound 145, N-(3,6-dicyclopropyl-9H-xanthen-9-yl)-2-oxo-6-(trifluoromethyl)-1,2-dihydropyridine-3-carboxamide]	210 nM
Cc1ccc2c(c1)Oc1cccc(C)c1C2NC(=O)c1ccc(C)[nH]c1=O (stereo not shown) [Compound 147, N-(1,6-dimethyl-9H-xanthen-9-yl)-6-methyl-2-oxo-1,2-dihydropyridine-3-carboxamide]	> 10000 nM
Cc1ccc2c(c1)C(NC(=O)c1ccc(C(F)(F)F)[nH]c1=O)c1ccccc1O2 (stereo not shown) [Compound 148, N-(2-methyl-9H-xanthen-9-yl)-2-oxo-6-(trifluoromethyl)-1,2-dihydropyridine-3-carboxamide]	670 nM

SMILES	IC50
Cc1ccc2c(c1)Oc1cc(C)ccc1C2NC(=O)c1ccc(C)[nH]c1=O [Compound 149, N-(3,6-dimethyl-9H-xanthen-9-yl)-6-methyl-2-oxo-1,2-dihydropyridine-3-carboxamide]	> 10000 nM
O=C(NC1c2ccccc2Oc2ccc(F)cc21)c1ccc(C(F)(F)F)[nH]c1=O (stereo not shown) [Compound 150, N-(2-fluoro-9H-xanthen-9-yl)-2-oxo-6-(trifluoromethyl)-1,2-dihydropyridine-3-carboxamide]	400 nM
O=C(NC1c2ccccc2Oc2cc(C3CCC3)ccc21)c1ccc(C(F)(F)F)[nH]c1=O (stereo not shown) [Compound 151, N-(3-cyclobutyl-9H-xanthen-9-yl)-2-oxo-6-(trifluoromethyl)-1,2-dihydropyridine-3-carboxamide]	290 nM
O=C(NC1c2ccccc2Oc2c(Cl)cccc21)c1ccc(C(F)(F)F)[nH]c1=O (stereo not shown) [Compound 152, N-(4-chloro-9H-xanthen-9-yl)-2-oxo-6-(trifluoromethyl)-1,2-dihydropyridine-3-carboxamide]	1030 nM
O=C(NC1c2cc(Cl)ccc2Oc2ccc(Cl)cc21)c1ccc(C(F)(F)F)[nH]c1=O [Compound 153, N-(2,7-dichloro-9H-xanthen-9-yl)-2-oxo-6-(trifluoromethyl)-1,2-dihydropyridine-3-carboxamide]	1790 nM
N#Cc1ccc2c(c1)C(NC(=O)c1ccc(C(F)(F)F)[nH]c1=O)c1ccccc1O2 (stereo not shown) [Compound 154, N-(2-cyano-9H-xanthen-9-yl)-2-oxo-6-(trifluoromethyl)-1,2-dihydropyridine-3-carboxamide]	650 nM
C=Cc1ccc2c(c1)C(NC(=O)c1ccc(C(F)(F)F)[nH]c1=O)c1ccccc1O2 (stereo not shown) [Compound 155, 2-oxo-6-(trifluoromethyl)-N-(2-vinyl-9H-xanthen-9-yl)-1,2-dihydropyridine-3-carboxamide]	460 nM
O=C(NC1c2ccccc2Oc2cccc(F)c21)c1ccc(C(F)(F)F)[nH]c1=O (stereo not shown) [Compound 156, N-(1-fluoro-9H-xanthen-9-yl)-2-oxo-6-(trifluoromethyl)-1,2-dihydropyridine-3-carboxamide]	260 nM
Cc1cccc2c1C(NC(=O)c1ccc(C(F)(F)F)[nH]c1=O)c1ccccc1O2 (stereo not shown) [Compound 157, N-(1-methyl-9H-xanthen-9-yl)-2-oxo-6-(trifluoromethyl)-1,2-dihydropyridine-3-carboxamide]	850 nM
Cc1ccc2c(c1)C(NC(=O)c1ccc(C(F)(F)F)[nH]c1=O)c1cc(C)ccc1O2 [Compound 158, N-(2,7-dimethyl-9H-xanthen-9-yl)-2-oxo-6-(trifluoromethyl)-1,2-dihydropyridine-3-carboxamide]	360 nM
O=C(NC1c2ccccc2Oc2cccc(Cl)c21)c1ccc(C(F)(F)F)[nH]c1=O (stereo not shown) [Compound 159, N-(1-chloro-9H-xanthen-9-yl)-2-oxo-6-(trifluoromethyl)-1,2-dihydropyridine-3-carboxamide]	600 nM
CCc1ccc2c(c1)C(NC(=O)c1ccc(C(F)(F)F)[nH]c1=O)c1ccccc1O2 (stereo not shown) [Compound 160, N-(2-ethyl-9H-xanthen-9-yl)-2-oxo-6-(trifluoromethyl)-1,2-dihydropyridine-3-carboxamide]	180 nM
CCc1ccc2c(c1)Oc1ccccc1C2NC(=O)c1ccc(C(F)(F)F)[nH]c1=O (stereo not shown) [Compound 162, N-(3-ethyl-9H-xanthen-9-yl)-2-oxo-6-(trifluoromethyl)-1,2-dihydropyridine-3-carboxamide]	80 nM
CCc1cccc2c1C(NC(=O)c1ccc(C(F)(F)F)[nH]c1=O)c1ccccc1O2 (stereo not shown) [Compound 163, N-(1-ethyl-9H-xanthen-9-yl)-2-oxo-6-(trifluoromethyl)-1,2-dihydropyridine-3-carboxamide]	840 nM
Cc1ccc2c(c1)Oc1cccc(C)c1C2NC(=O)c1cc(C)c(C(F)(F)F)[nH]c1=O (stereo not shown) [Compound 164, N-(1,6-dimethyl-9H-xanthen-9-yl)-5-methyl-2-oxo-6-(trifluoromethyl)-1,2-dihydropyridine-3-carboxamide]	900 nM
Cc1cc(C(=O)NC2c3ccc(Cl)cc3Oc3cc(Cl)ccc32)c(=O)[nH]c1C(F)(F)F [Compound 165, N-(3,6-dichloro-9H-xanthen-9-yl)-5-methyl-2-oxo-6-(trifluoromethyl)-1,2-dihydropyridine-3-carboxamide]	110 nM
Cc1ccc2c(c1)Oc1cc(C)ccc1C2NC(=O)c1cc(C)c(C(F)(F)F)[nH]c1=O [Compound 166, N-(3,6-dimethyl-9H-xanthen-9-yl)-5-methyl-2-oxo-6-(trifluoromethyl)-1,2-dihydropyridine-3-carboxamide]	60 nM
CCc1cc(C(=O)NC2c3ccc(C)cc3Oc3cccc(C)c32)c(=O)[nH]c1C(F)(F)F (stereo not shown) [Compound 167, N-(1,6-dimethyl-9H-xanthen-9-yl)-5-ethyl-2-oxo-6-(trifluoromethyl)-1,2-dihydropyridine-3-carboxamide]	820 nM
